This passage reports IC50 results from patent publication EP1144412B1, “IMMUNOSUPPRESSIVE EFFECTS OF PTERIDINE DERIVATIVES” (4 AZA Bioscience nv, priority 1998, dated 2000).

In experiment [1] the test system is Peripheral blood mononuclear cells (PBMC). In words: Mixed lymphocyte reaction (MLR), [3H]-thymidine incorporation. It is filed as cell-based. To be noted: Homo sapiens. From the text:
(§1) Various models may be used for testing an immunosuppressive effect. In vivo, for example, different transplantation models are available. They are strongly influenced by different immunogenicities, depending on the donor and recipient species used and depending on the nature of the transplanted organ. The survival time of transplanted organs can thus be used to measure the suppression of the immune response. In vitro, there exist also various models. The most used are lymphocyte activation tests. Usually activation is measured via lymphocyte proliferation. Inhibition of proliferation thus always means immunosuppression under the experimental conditions applied. There exist different stimuli for lymphocyte activation: • coculture of lymphocytes of […] (MLR = mixed lymphocyte reaction): lymphocytes expressing different minor and major antigens of the HLA-DR type (= alloantigens) activate each other non-specifically. • CD3 assay: here there is an activation of the T-lymphocytes via an exogenously added antibody (OKT3). This antibody reacts against the CD3 molecule located on the lymphocyte membrane. This molecule has a costimulatory function. […] This molecule is also located on the lymphocyte membrane, and delivers strong costimulatory signals.
Peripheral blood mononuclear cells (PBMC) were isolated from heparinized peripheral blood by density gradient centrifugation over Lymphoprep (Nycomed, Maorstua, Norway). Allogeneic PBMC or EBV-transformed human B cells [RPMI1788 (ATCC name CCL156)] which strongly express B7-1 and B7-2 were used as stimulator cells after irradiation with 30 Gy. MLR was performed in triplicate wells. After 5 days incubation at 37EC, 1 µCi [^3H]-thymidine was added to each cup. After a further 16 hours incubation, cells were harvested and counted in a β-counter.
The percent suppression of proliferation by drugs was counted using the formula Percent inhibition =((cpm + drugs) - cpm Cult. Med)/((cpm - drugs) - cpm Cult. Med.)x 100 [formula]
A general note: Incorporation of labelled thymidine or its analogues reports DNA synthesis.

In experiment [2] the test system is Highly purified T cells. In words: T cell proliferation induced by anti-CD3 mAb + PMA (BrdU incorporation). Type of experiment: cell-based, Human. To be noted: Homo sapiens, T-cell.
From the text: as §1
(§2) T cells were purified by removing non-T cells. Briefly,monocytes were removed by cold agglutination. The resulting lymphoid cells were further purified by a cell enrichment immunocolumn [Cellect Human T (Biotex, Edmonton, Alberta, Canada)] by a process of negative selection.
(§3) Measurements of T cell proliferations induced by anti-CD3 mAb + PMA or anti-CD28 mAb + PMA
(§4) Highly purified T cells (10^6/ml) were stimulated by immobilized anti-CD3 àr anti-CD28 mAb in the presence of PMA. Anti-CD3 mAb (CLB-CD3; CLB, Amsterdam, The Netherlands) were fixed on the 96-microwell plates by incubating the wells with 50 µl of mAb solution (1/800 dilution in culture medium). Anti-CD28 mAb (CLB-CD28; CLB, Amsterdam, The Netherlands) 50 µl (1/650 dilution in culture medium) was added directly to the wells. Further, 20 µl PMA (Sigma, St. Louis, MO, USA) solution (final concentration: 0.5 ng/ml) was added. Subsequently, 20 µl of immunosuppressants were added by serial dilution in triplicate wells. Finally 100 µl of the T cell suspension (10^6/ml) was added. After 48-hour incubation at 37EC in 5% CO2 20 Φl BrdU (100 ΦM solution) (Cell Proliferation Elisa, Boehringer-Mannheim Belgium) was added to each well. After a further overnight incubation the T cell proliferation was measured using a colorimetric immunoassay for qualification of cell proliferation based on measurements of the incorporation of BrdU during DNAsynthesis. The optical density (OD) was measured by a Behring EL311 plate reader at 450 nm (reference wavelength: 690 nm). The percent suppression of proliferation by drugs was counted using the formula: Per cent inhibition =((OD + drugs) - (OD Cult. Med.))/((OD - drugs) - (OD Cult. Med.))x 100 [formula]

The subject of experiment [3] is Highly purified T cells. In words: T cell proliferation induced by anti-CD28 mAb + PMA (BrdU incorporation). Type of experiment: cell-based, Human. The note with it: Homo sapiens, T-cell.
From the text: as §1, §2, §3, §4

Where [4] appears, read: Table IV, known pteridine derivatives, IC50 subranges, read-out: MLR.
[5] abbreviates: Table IV, known pteridine derivatives, IC50 subranges, read-out: aCD3.
The mark [6] stands for this setting: Table IV, known pteridine derivatives, IC50 subranges, read-out: aCD28.
Setting [7] is: Table II, read-out: IC50 in µM of pteridine derivative MLR.
Where [8] appears, read: untitled structure table, no unit printed there, same values in Table II as IC50 in µM, read-out: MLR.
The mark [9] stands for this setting: Table II, read-out: IC50 in µM of pteridine derivative ACD3.
Where [10] appears, read: untitled structure table, no unit printed there, same values in Table II as IC50 in µM, read-out: aCD3.
Where [11] appears, read: Table II, read-out: IC50 in µM of pteridine derivative aCD28.
Where [12] appears, read: untitled structure table, no unit printed there, same values in Table II as IC50 in µM, read-out: aCD28.

Like-named read-outs stand apart in the source and are kept apart here.

Turning to `CC(C)C(=O)NCc1cnc2nc(N)nc(N)c2n1` [CH2 NH CO CH (CH3)2, reference compound], the IC50 in experiment [1] (setting [4]), in experiment [2] (setting [5]) and in experiment [3] (setting [6]) was > 151 µM in each case.

As for `CCCOCc1cnc2nc(N)nc(N)c2n1` [CH2 O CH2CH2CH3, reference compound], the IC50 in experiment [1] (setting [4]), in experiment [2] (setting [5]) and in experiment [3] (setting [6]) was > 151 µM each time.

Regarding `COCc1cnc2nc(N)nc(N)c2n1` [CH2 O CH3, reference compound], the IC50 in experiment [1] (setting [4]), in experiment [2] (setting [5]) and in experiment [3] (setting [6]) was > 151 µM each time.

Consider `CSCc1cnc2nc(N)nc(N)c2n1` [CH2 S CH3, reference compound], for which the IC50 in experiment [1] (setting [4]), in experiment [2] (setting [5]) and in experiment [3] (setting [6]) was > 151 µM each time.

For `CN(C)Cc1cnc2nc(N)[nH]c(=O)c2n1` [CH2N(CH3)2, reference compound], the IC50 in experiment [1] (setting [4]), in experiment [2] (setting [5]) and in experiment [3] (setting [6]) was > 151 µM each time.

For the compound `CNCc1cnc2nc(N)[nH]c(=O)c2n1` [CH2NHCH3, reference compound], the IC50 in experiment [1] (setting [4]), in experiment [2] (setting [5]) and in experiment [3] (setting [6]) was > 151 µM each time.

In the case of `CCOCc1cnc2nc(N)[nH]c(=O)c2n1` [CH2OC2H5, reference compound], the IC50 in experiment [1] (setting [4]), in experiment [2] (setting [5]) and in experiment [3] (setting [6]) was > 151 µM each time.

In the case of `CSCc1cnc2nc(N)[nH]c(=O)c2n1` [CH2S CH3, reference compound], the IC50 in experiment [1] (setting [4]), in experiment [2] (setting [5]) and in experiment [3] (setting [6]) was > 151 µM throughout.

With `CCCCCOc1nc(N)nc2ncc(C=Cc3ccccc3)nc12` [Compound 1, 2-amino-4-pentoxy-6-styrylpteridine], the IC50 was found to be 15 µM in experiment [1] (setting [7]); 15 µM in experiment [1] (setting [8]); 110 µM in experiment [2] (setting [9]); 110 µM in experiment [2] (setting [10]); 80 µM in experiment [3] (setting [11]); 80 µM in experiment [3] (setting [12]).

For the compound `CCCCCOc1nc(N)nc2ncc(C(Br)C(Br)c3ccccc3)nc12` (centres unmarked) [Compound 2, 2-amino-4-n-pentoxy-6-(1,2-dibromo-2-phenylethyl)pteridine], the IC50 in experiment [1] (setting [7]) is 12 µM; in experiment [1] (setting [8]) it was 12 µM; in experiment [2] (setting [9]) it was 4 µM; in experiment [2] (setting [10]), 4 µM; in experiment [3] (setting [11]) it was 12 µM; in experiment [3] (setting [12]), 12 µM.

`COc1nc2nc(N)nc(OC)c2nc1C=Cc1ccccc1` [Compound 3, 2-amino-4-methoxy-6-styryl-7-methoxypteridine]: the IC50 in experiment [1] (setting [7]) was 25 µM; in experiment [1] (setting [8]) it was 25 µM; in experiment [2] (setting [9]), 160 µM; in experiment [2] (setting [10]), 160 µM; in experiment [3] (setting [11]), 100 µM; in experiment [3] (setting [12]), 100 µM.

Regarding `COc1nc(N)nc2ncc(C(O)C(C)O)nc12` (centres unmarked) [Compound 4, 2-amino-4-methoxy-6-(1,2-dihydroxypropyl)pteridine], the IC50 in experiment [1] (setting [7]) is > 200 µM; in experiment [1] (setting [8]) it was > 200 µM; in experiment [2] (setting [9]), 140 µM; in experiment [2] (setting [10]) it was 140 µM; in experiment [3] (setting [11]), 110 µM; in experiment [3] (setting [12]), 110 µM.

With `Nc1nc(N)c2nc(-c3ccccc3)cnc2n1` [Compound 5, 2,4-diamino-6-phenyl pteridine], the IC50 in experiment [1] (setting [7]), in experiment [1] (setting [8]), in experiment [2] (setting [9]), in experiment [2] (setting [10]), in experiment [3] (setting [11]) and in experiment [3] (setting [12]) was > 200 µM throughout.

Take `O=c1[nH]cc(F)c(=O)[nH]1` [Compound 5-FU, 5-Fluoro-uracil, reference compound]: the IC50 worked out at 50 µM in experiment [2] (Table III, comparison immunosuppressants, read-out: IC50 aCD3) and 17 µM in experiment [3] (Table III, comparison immunosuppressants, read-out: IC50 aCD28).

`Cc1nc2nc(N)nc(N)c2nc1-c1ccccc1` [Compound 6, 2,4-diamino-6-phenyl-7-methylpteridine]: the IC50 in experiment [1] (setting [7]), in experiment [1] (setting [8]), in experiment [2] (setting [9]), in experiment [2] (setting [10]), in experiment [3] (setting [11]) and in experiment [3] (setting [12]) was > 200 µM each time.

`Cc1ccc(-c2cnc3nc(N)nc(N)c3n2)cc1` [Compound 7, 2,4-diamino-6-(4-tolyl)pteridine]: the IC50 in experiment [1] (setting [7]) was > 200 µM; in experiment [1] (setting [8]), > 200 µM; in experiment [2] (setting [9]), 110 µM; in experiment [2] (setting [10]) it was 110 µM; in experiment [3] (setting [11]), 25 µM; in experiment [3] (setting [12]), 25 µM.

In the case of `COc1ccc(-c2cnc3nc(N)nc(N)c3n2)cc1` [Compound 8, 2,4-diamino-6-(4-methoxyphenyl)pteridine], the IC50 was 150 µM in experiment [1] (setting [7]); > 150 µM in experiment [1] (setting [8]); 125 µM in experiment [2] (setting [9]); 125 µM in experiment [2] (setting [10]); 22 µM in experiment [3] (setting [11]); 22 µM in experiment [3] (setting [12]).

For `Nc1nc(N)c2nc(-c3ccc(Cl)cc3)cnc2n1` [Compound 9, 2,4-diamino-6-(4-chlorophenyl)pteridine], the IC50 in experiment [1] (setting [7]) came to 125 µM; in experiment [1] (setting [8]) it was 125 µM; in experiment [2] (setting [9]), 110 µM; in experiment [2] (setting [10]) it was 110 µM; in experiment [3] (setting [11]) it was 110 µM; in experiment [3] (setting [12]), 110 µM.

As for `Nc1nc(NCCO)nc2ncc(-c3ccccc3)nc12` [Compound 10, 2-hydroxyethylamino-4-amino-6-phenylpteridine], the IC50 in experiment [1] (setting [7]), in experiment [1] (setting [8]), in experiment [2] (setting [9]), in experiment [2] (setting [10]), in experiment [3] (setting [11]) and in experiment [3] (setting [12]) was 125 µM each time.

On to `Cc1ccc(-c2cnc3nc(NCCO)nc(N)c3n2)cc1` [Compound 11, 2-hydroxyethylamino-4-amino-6-(4-tolyl)pteridine], for which the IC50 was > 200 µM in experiment [1] (setting [7]); > 200 µM in experiment [1] (setting [8]); 200 µM in experiment [2] (setting [9]); 200 µM in experiment [2] (setting [10]); 160 µM in experiment [3] (setting [11]); 160 µM in experiment [3] (setting [12]).

`COc1ccc(-c2cnc3nc(NCCO)nc(N)c3n2)cc1` [Compound 12, 2-hydroxyethylamino-4-amino-6-(4-methoxyphenyl)pteridine]: the IC50 in experiment [1] (setting [7]) was > 200 µM; in experiment [1] (setting [8]) it was > 200 µM; in experiment [2] (setting [9]) it was > 200 µM; in experiment [2] (setting [10]), > 200 µM; in experiment [3] (setting [11]) it was 160 µM; in experiment [3] (setting [12]) it was 160 µM.

As for `CCCNc1nc(N)nc2ncc(-c3ccc(OC)c(OC)c3)nc12` [Compound 63, 2-amino-4-propylamino-6-(3,4-dimethoxyphenyl)pteridine], in experiment [1] (untitled structure table, IC50 subranges, read-out: MLR), the IC50 was < 1 µM.

Take `CCOc1nc(N)nc2ncc(-c3ccc(OC)c(OC)c3)nc12` [Compound 66, 2-amino-4-ethoxy-6-(3,4-dimethoxyphenyl)pteridine]: the IC50 in experiment [2] (untitled structure table, IC50 subranges, read-out: aCD3) was < 1 µM; in experiment [3] (untitled structure table, IC50 subranges, read-out: aCD28), < 1 µM.
